Data taken from patent publication US9486440B2, “Uses of indole-ketones or indolidones as neuro-protective drugs” (UNIVERSITY OF MACAU, priority 2011, dated 2016).
“Also recorded” adds a separate entry of the source.

How the values were obtained:
[1] = test system: intersegmental-vessel (ISV) formation; assay: Intersegmental-vessel formation in Tg(fli-1:EGFP) zebrafish; assay type: in vivo; conditions: 1 dpf embryos treated 48 hours; SU4312 3-30 μM, PTK787/ZK222584 0.3-3 μM, VRI 0.1-0.3 μM, SU5416 0.3-1 μM
Protocol: (§1) Wild-type zebrafish (AB strain) and Tg (fli-1:EGFP) transgenic zebrafish were maintained as described in the Zebrafish Handbook (Westerfield, 1993). Zebrafish embryos were generated by natural pair-wise mating (3-12 months old) and raised at 28.5° C. in embryo medium (13.7 mM NaCl, 540 μM KCl, pH 7.4, 25 μM Na2HPO4, 44 μM KH2PO4, 300 μM CaCl2, 100 μM MgSO4, 420 μM NaHCO3, pH 7.4). […] An equal concentration of DMSO in embryo medium was used as vehicle control in each experiment.
(§2) After drug treatment, zebrafish were removed from microplate and observed for gross morphological changes of blood vessel under a fluorescence microscope (Olympus am Motorized Inverted Microscope, Japan) equipped with a digital camera (DP controller, Soft Imaging System, Olympus). Images were analyzed with Axiovision 4.2 and Adobe Photoshop 7.0.
(§3) Wild-type zebrafish (AB strain) and Tg(fli-1:EGFP) transgenic zebrafish were maintained as described in the Zebrafish Handbook (Westerfield, 1993). Zebrafish embryos were generated by natural pair-wise mating (3-12 months old) and were raised at 28.5° C. in embryo medium (13.7 mM NaCl, 540 μM KCl, pH 7.4, 25 μM Na2HPO4, 44 μM KH2PO4, 300 μM CaCl2, 100 μM MgSO4, 420 μM NaHCO3, pH 7.4). […] Equal concentration of DMSO in embryo medium was used as vehicle control in each experiment.
as §2, with “from the” for “from”

[2] = molecular target: nNOS (Homo sapiens, UniProt P29475); assay: In vitro NOS activity assay, nNOS; assay type: biochemical; parameters: purchased Alexis Biochemicals (Lausen, Switzerland); conditions: for inhibition of recombinant human nNOS: PTK787/ZK222584 up to 1 mM
Protocol: In the in vitro NOS activity assay (Li et al., 2007), purified recombinant human nNOS, endothelial NOS (eNOS), and inducible NOS (iNOS) were bought from Alexis Biochemicals (Lausen, Switzerland). NOS activity was determined by monitoring the conversion of L-[3H]arginine to [3H]citrulline following the instructions provided in the kit (Calbiochem, USA). The reaction mixture contained a final volume of 40 μl with 25 mM Tris-Cl at pH 7.4, 3 μM tetrahydrobiopterin, 1 μM FAD, 1 μM FMN, 1 mM NADPH, 0.6 mM CaCl2, 0.1 μM calmodulin, 2.5 μg of pure NOS enzyme, 5 μl L-[3H]arginine (Perkin Elmer, Waltham, Mass., USA), and different concentrations of the tested reagents. The reaction mixture was incubated at 22° C. for 45 min. The reaction was quenched by adding 400 μl of stopping buffer (50 mM HEPES, pH 5.5, and 5 mM EDTA) for nNOS and eNOS reactions or by heating reactive tubes for iNOS. Unreacted L-[3H]arginine was then trapped by 100 μl of equilibrated resin provided in a spin cup followed by centrifugation for 30 s at 13,200 rpm. The filtrate was quantified by liquid scintillation counting.

[3] = test system: CGNs; assay: FDA/PI double staining of CGNs after MPP+; assay type: cell-based, rat; conditions: 20 μM, 35 μM MPP+
Protocol: Viable granule neurons were stained with fluorescein formed from fluorescein diacetate (FDA), which is de-esterified only by living cells. Propidium iodide (PI) can penetrate cell membranes of dead cells to intercalate into double-stranded nucleic acids. Briefly, after incubation with 10 μg/ml FDA and 5 μg/ml PI for 15 min, the neurons were examined and photographed using UV light microscopy; and the pictures were compared with those photographed under phase contrast microscopy.
Viable granule neurons were stained with fluorescein formed from fluorescein diacetate (FDA) by esterase in viable cells. Propidium iodide (PI) can penetrate cell membranes of dead cells to intercalate into double-stranded nucleic acids. Briefly, after incubation with 10 μg/ml of FDA and 5 μg/ml of PI for 15 min, the neurons were examined and images were acquired using UV light microscopy for comparison with photos taken under phase contrast microscopy.

[4] = test system: zebrafish; assay: Toxicity to zebrafish; assay type: in vivo; conditions: SU5416 10 μM, VRI 3 μM, SU4312 up to 30 μM
Protocol: as §1, §3

[5] = test system: CGNs; assay: Hoechst 33342 staining of CGNs after MPP+; assay type: cell-based, rat; conditions: 20 μM, 35 μM MPP+
Protocol: Chromatin condensation was detected by nucleus staining with Hoechst 33342 as described by Li et al., 2005. CGNs (2.7×10^6 cells) grown in a 35-mm dish were washed with ice-cold phosphate-buffered saline (PBS) and fixed with 4% formaldehyde in PBS. The cells were then stained with Hoechst 33342 (5 μg/ml) for 5 min at 4° C. The nuclei were visualized using a fluorescence microscope at ×400 magnification.
Chromatin condensation was detected by staining the cell nucleus with Hoechst 33342 as described by Li et al., 2005. CGNs (2.7×10^6 cells) grown in a 35-mm dish were washed with ice-cold phosphate-buffered saline (PBS), fixed with 4% formaldehyde in PBS, membrane-permeabilized in 0.1% Triton X-100 and blocked in 1% BSA. Cells were then exposed to a primary nNOS antibody (Santa Cruz) overnight at 4° C. followed by incubation at room temperature with an Alexa Fluor 488-conjugated secondary antibody. After immunostaining, cells were then stained with Hoechst 33342 (5 μg/ml) at 4° C. for 5 min. Images were acquired using a fluorescence microscope at ×100 magnification.
To quantify the percentage of apoptotic nuclei in each group, photos of each dish (n=3 dishes in each group for three independent experiments) were taken at five random fields and the numbers of apoptotic nuclei and total nuclei (n=300) were counted, and the percentage of apoptotic nuclei was averaged.

| Compound | inhibition of intersegmental-vessel (ISV) formation [1] | inhibition of recombinant human nNOS [2] | loss of neurons and morphological alterations (FDA/PI, phase contrast) [3] | toxicity to zebrafish [4] | nuclear condensation / apoptotic nuclei (Hoechst 33342) [5] | Ki ([2]; 10 and 20 μM SU4312, 5 to 40 μM L-[3H]arginine, Lineweaver-Burk, read-out: Ki value of nNOS inhibition) [µM] | mode of nNOS inhibition ([2]; Lineweaver-Burk plots) |
| --- | --- | --- | --- | --- | --- | --- | --- |
| Clc1ccc(Nc2nnc(Cc3ccncc3)c3ccccc23)cc1 [PTK787/ZK222584] | showed differential concentration-dependent inhibition of ISV formation; also recorded: at 1 μM inhibited angiogenesis with the potency similar to that of SU4312 at 30 μM | did not inhibit any of the isoforms even at 1 mM | – | – | – | – | – |
| Cc1cc(C)c(/C=C2\C(=O)Nc3ccccc32)[nH]1 [SU5416, (3Z)-3-[(3,5-dimethyl-1H-pyrrol-2-yl)methylidene]-1,3-dihydro-2H-indol-2-one] | did not show this activity | – | significantly blocked the loss of neurons and reversed the morphological alteration | showed toxicity to zebrafish | significantly reversed neuronal apoptosis induced by MPP^+ | – | – |
| CN(C)c1ccc(C=C2C(=O)Nc3ccccc32)cc1 [SU4312, 3-[4-(dimethylamino)benzylidenyl]indolin-2-one] | showed differential concentration-dependent inhibition of ISV formation | directly and selectively inhibit recombinant human nNOS relative to iNOS | significantly blocked MPP^+-induced loss of neurons and reversed MPP^+-induced morphological alterations | did not induce any neurotoxicity | significantly reversed nuclear condensation induced by MPP^+ | 12.7 | inhibited nNOS in a non-competitive manner; also recorded: did not alter Km but increased the appeared 1/Vmax |
